Each structure is given as a SMILES string.

What all share (format): in vivo
The test system of experiment [1] is Echinochloa crus-galli (ECHCG). Kind of experiment: Post-emergence herbicidal glasshouse test. The settings on record: post-emergence (sprayed after 8 days cultivation), evaluated after 13 days, 100=total damage to plant, 0=no damage to plant; for POST Application ECHCG, damage to plant: 1000 g/ha; for pest or weed control at 1000 g/ha: Echinochloa crus-galli, 312 h, read-out: POST Application ECHCG, damage to plant. As for the experimental part: (§1) Seeds of a variety of test species were sown in standard soil in pots (Alopecurus myosuroides (ALOMY), Setaria faberi (SETFA), Echinochloa crus-galli (ECHCG), Solanum nigrum (SOLNI) and Amaranthus retoflexus (AMARE)). After cultivation for one day (pre-emergence) or after 8 days cultivation (post-emergence) under controlled conditions in a glasshouse (at 24/16° C., day/night; 14 hours light; 65% humidity), the plants were sprayed with an aqueous spray solution derived from the formulation of the technical active ingredient in acetone/water (50:50) solution containing 0.5% Tween 20 (polyoxyethelyene sorbitan monolaurate, CAS RN 9005-64-5). Compounds were applied at 1000 g/ha. The test plants were then grown in a glasshouse under controlled conditions in a glasshouse (at 24/16° C., day/night; 14 hours light; 65% humidity) and watered twice daily. After 13 days for pre and post-emergence, the test was evaluated (100=total damage to plant; 0=no damage to plant).

For experiment [2], the system named is Alopecurus myosuroides (ALOMY). Kind of experiment: Post-emergence herbicidal glasshouse test. The settings on record: post-emergence (sprayed after 8 days cultivation), evaluated after 13 days, 100=total damage to plant, 0=no damage to plant; for POST Application ALOMY, damage to plant: 1000 g/ha; for pest or weed control at 1000 g/ha: Alopecurus myosuroides, 312 h, read-out: POST Application ALOMY, damage to plant. The protocol:
as §1

Experiment [3] deals with Amaranthus retoflexus (AMARE). Put plainly: Post-emergence herbicidal glasshouse test. To be noted: post-emergence (sprayed after 8 days cultivation), evaluated after 13 days, 100=total damage to plant, 0=no damage to plant; for POST Application AMARE, damage to plant: 1000 g/ha; for pest or weed control at 1000 g/ha: Amaranthus retroflexus, 312 h, read-out: POST Application AMARE, damage to plant. As for the experimental part: as §1

Experiment [4] deals with Solanum nigrum (SOLNI). Kind of experiment: Post-emergence herbicidal glasshouse test. The settings on record: post-emergence (sprayed after 8 days cultivation), evaluated after 13 days, 100=total damage to plant, 0=no damage to plant; for POST Application SOLNI, damage to plant: 1000 g/ha; for pest or weed control at 1000 g/ha: Solanum nigrum, 312 h, read-out: POST Application SOLNI, damage to plant. As for the experimental part:
as §1

The subject of experiment [5] is Setaria faberi (SETFA). Put plainly: Post-emergence herbicidal glasshouse test. The settings on record: post-emergence (sprayed after 8 days cultivation), evaluated after 13 days, 100=total damage to plant, 0=no damage to plant; for POST Application SETFA, damage to plant: 1000 g/ha; for pest or weed control at 1000 g/ha: Setaria faberi, 312 h, read-out: POST Application SETFA, damage to plant. The protocol: as §1

Experiment [6] relates to Echinochloa crus-galli (ECHCG). Kind of experiment: Pre-emergence herbicidal glasshouse test. The settings on record: pre-emergence (sprayed after one day cultivation), evaluated after 13 days, 100=total damage to plant, 0=no damage to plant; for PRE Application ECHCG, damage to plant: 1000 g/ha; for pest or weed control at 1000 g/ha: Echinochloa crus-galli, 312 h, read-out: PRE Application ECHCG, damage to plant. The protocol:
as §1

Experiment [7] concerns Alopecurus myosuroides (ALOMY). Kind of experiment: Pre-emergence herbicidal glasshouse test. To be noted: pre-emergence (sprayed after one day cultivation), evaluated after 13 days, 100=total damage to plant, 0=no damage to plant; for PRE Application ALOMY, damage to plant: 1000 g/ha; for pest or weed control at 1000 g/ha: Alopecurus myosuroides, 312 h, read-out: PRE Application ALOMY, damage to plant. The protocol: as §1

Experiment [8] relates to Amaranthus retoflexus (AMARE). Kind of experiment: Pre-emergence herbicidal glasshouse test. The settings on record: pre-emergence (sprayed after one day cultivation), evaluated after 13 days, 100=total damage to plant, 0=no damage to plant; for PRE Application AMARE, damage to plant: 1000 g/ha; for pest or weed control at 1000 g/ha: Amaranthus retroflexus, 312 h, read-out: PRE Application AMARE, damage to plant. As for the experimental part: as §1

Experiment [9] has as its system Solanum nigrum (SOLNI). Kind of experiment: Pre-emergence herbicidal glasshouse test. To be noted: pre-emergence (sprayed after one day cultivation), evaluated after 13 days, 100=total damage to plant, 0=no damage to plant; for PRE Application SOLNI, damage to plant: 1000 g/ha; for pest or weed control at 1000 g/ha: Solanum nigrum, 312 h, read-out: PRE Application SOLNI, damage to plant. The protocol: as §1

Experiment [10] deals with Setaria faberi (SETFA). Kind of experiment: Pre-emergence herbicidal glasshouse test. To be noted: pre-emergence (sprayed after one day cultivation), evaluated after 13 days, 100=total damage to plant, 0=no damage to plant; for PRE Application SETFA, damage to plant: 1000 g/ha; for pest or weed control at 1000 g/ha: Setaria faberi, 312 h, read-out: PRE Application SETFA, damage to plant. The protocol: as §1

Consider `O=C1CCCC(=O)C1C(=O)c1cc2ccc(=O)n(CCC=C(F)F)c2nc1C(F)(F)F` [Compound 2.2, 2-{8-(4,4-difluorobut-3-enyl)-7-oxo-7,8-dihydro-2-trifluoromethyl-[1,8]-naphthyridine-3-carbony}-cyclohexane-1,3-dione], for which the “POST Application ECHCG, damage to plant” value in [1] amounted to 90. Moreover, the “POST Application ALOMY, damage to plant” value in [2] amounted to 70. Besides, the “POST Application AMARE, damage to plant” value in experiment [3] came out at 100. In experiment [4], the “POST Application SOLNI, damage to plant” value came out at 100. Moreover, the “POST Application SETFA, damage to plant” value in [5] was 90. Besides, the “PRE Application ECHCG, damage to plant” value in experiment [6] came to 90. Besides, the “PRE Application ALOMY, damage to plant” value in experiment [7] is recorded as 60. The “PRE Application AMARE, damage to plant” value in [8] is 70. The “PRE Application SOLNI, damage to plant” value in experiment [9] came out at 90. Further, in experiment [10], the “PRE Application SETFA, damage to plant” value is reported as 90.
On to `Cc1nc2nc(C(F)(F)F)c(C(=O)C3=C(OC(=O)C(C)C)CCCC3=O)cc2cc1F` [Compound 4.21, Isobutyric acid 2-(6-fluoro-7-methyl-2-trifluoromethyl-[1,8]-naphthyridine-3-carbonyl)-3-oxo-cyclohex-1-enyl ester], for which the pest or weed control at 1000 g/ha worked out at 80% in experiment [1]; 80% in [2]; 90% in [3]; 80% in experiment [4]; 80% in experiment [5]; 100% in [6]. In addition, the pest or weed control at 1000 g/ha amounted to 80% in experiment [7], 100% in [8], 100% in experiment [9] and 100% in experiment [10].
Turning to `O=C1CCCC(=O)C1C(=O)c1cc2ccc(OC3CCCC3)nc2nc1C(F)(F)F` [Compound 1.16], the “POST Application ECHCG, damage to plant” value in [1] worked out at 70. Moreover, the “POST Application ALOMY, damage to plant” value in experiment [2] amounted to 70. The “POST Application AMARE, damage to plant” value in experiment [3] is listed as 70. Also, the “POST Application SOLNI, damage to plant” value in [4] is on record as 90. Moreover, in [5], the “POST Application SETFA, damage to plant” value is given as 90. Further, the “PRE Application ECHCG, damage to plant” value in experiment [6] came out at 90. Besides, the “PRE Application ALOMY, damage to plant” value in [7] is 60. Also, the “PRE Application AMARE, damage to plant” value in experiment [8] came to 80. For the same molecule, the “PRE Application SOLNI, damage to plant” value in experiment [9] is reported as 90. For the same molecule, the “PRE Application SETFA, damage to plant” value in experiment [10] is recorded as 90.
For the molecule `O=C1CCCC(=O)C1C(=O)c1cc2ccc(Br)nc2nc1C(F)(F)F` [Compound 1.99], the pest or weed control at 1000 g/ha came out at 80% in [1]; 30% in experiment [2]; 100% in [3]; 70% in experiment [4]; 80% in experiment [5]; 90% in experiment [6]. Further, the pest or weed control at 1000 g/ha in experiment [7] amounted to 10%; in experiment [8], 100%; in experiment [9], 90%; in experiment [10], 40%.
As to `CS(=O)(=O)c1ccc2cc(C(=O)C3C(=O)CCCC3=O)c(C(F)(F)F)nc2n1` [Compound 1.20], the pest or weed control at 1000 g/ha in experiment [1] is 90%; in experiment [2] it was 20%; in experiment [3], 80%; in experiment [4], 100%; in experiment [5], 100%; in experiment [6], 70%. For the same molecule, the pest or weed control at 1000 g/ha was found to be 20% in experiment [7], 30% in [8], 100% in [9] and 80% in experiment [10].
Consider `CC(C)n1c(=O)ccc2cc(C(=O)C3C(=O)CCCC3=O)c(C(F)(F)F)nc21` [Compound 2.10, 2-{8-isopropyl-7-oxo-7,8-dihydro-2-trifluoromethyl-[1,8]-naphthyridine-3-carbony}-cyclohexane-1,3-dione], for which the pest or weed control at 1000 g/ha in [1] was found to be 90%; in experiment [2], 80%; in experiment [3], 100%; in experiment [4], 100%; in experiment [5] it was 90%; in experiment [6], 90%. Besides, the pest or weed control at 1000 g/ha in [7] is 50%; in experiment [8], 80%; in experiment [9], 90%; in experiment [10], 80%.
For `CC(CF)c1ccc2cc(C(=O)C3C(=O)C4CCC(C4)C3=O)c(C(F)(F)F)nc2n1` (stereo not shown) [Compound 3.11], the “POST Application ECHCG, damage to plant” value in [1] was 80. In experiment [2], the “POST Application ALOMY, damage to plant” value is reported as 70. In experiment [3], the “POST Application AMARE, damage to plant” value was 100. The “POST Application SOLNI, damage to plant” value in [4] amounted to 90. Moreover, in [5], the “POST Application SETFA, damage to plant” value is given as 90. In addition, the “PRE Application ECHCG, damage to plant” value in [6] turned out to be 100. For the same molecule, the “PRE Application ALOMY, damage to plant” value in experiment [7] is reported as 70. Moreover, in experiment [8], the “PRE Application AMARE, damage to plant” value was determined as 100. The “PRE Application SOLNI, damage to plant” value in experiment [9] is recorded as 100. The “PRE Application SETFA, damage to plant” value in experiment [10] was found to be 90.
For `O=C1CCCC(=O)C1C(=O)c1cc2cc(F)c(-c3ccsc3)nc2nc1C(F)(F)F` [Compound 1.71], the “POST Application ECHCG, damage to plant” value in [1] is given as 80. Further, the “POST Application ALOMY, damage to plant” value in experiment [2] is on record as 30. Further, the “POST Application AMARE, damage to plant” value in experiment [3] worked out at 100. Further, the “POST Application SOLNI, damage to plant” value in experiment [4] was determined as 70. In [5], the “POST Application SETFA, damage to plant” value was found to be 80. For the same molecule, in experiment [6], the “PRE Application ECHCG, damage to plant” value came out at 90. The “PRE Application ALOMY, damage to plant” value in experiment [7] came out at 10. In experiment [8], the “PRE Application AMARE, damage to plant” value worked out at 0. Moreover, in experiment [9], the “PRE Application SOLNI, damage to plant” value came to 70. Besides, the “PRE Application SETFA, damage to plant” value in experiment [10] is given as 70.
Turning to `COCc1nc2nc(C(F)(F)F)ccc2cc1C(=O)C1C(=O)CCCC1=O` [Compound 1.100, 2-[2-(methoxymethyl)-7-trifluoromethyl-[1,8]-naphthyridine-3-carbony]-cyclohexane-1,3-dione], in experiment [1], the “POST Application ECHCG, damage to plant” value was 80. Moreover, the “POST Application ALOMY, damage to plant” value in experiment [2] was found to be 40. Besides, the “POST Application AMARE, damage to plant” value in [3] turned out to be 90. In addition, the “POST Application SOLNI, damage to plant” value in experiment [4] is 80. In addition, the “POST Application SETFA, damage to plant” value in experiment [5] is recorded as 80. Moreover, in [6], the “PRE Application ECHCG, damage to plant” value is 100. In addition, the “PRE Application ALOMY, damage to plant” value in experiment [7] amounted to 20. Further, the “PRE Application AMARE, damage to plant” value in experiment [8] is given as 100. Besides, the “PRE Application SOLNI, damage to plant” value in [9] came to 100. For the same molecule, the “PRE Application SETFA, damage to plant” value in experiment [10] came to 100.
With `O=C1CCCC(=O)C1C(=O)c1cc2ccc(O)nc2nc1C(F)(F)F` [Compound 1.21, 2-(7-hydroxy-2-trifluoromethyl-[1,8]-naphthyridine-3-carbony)-cyclohexane-1,3-dione], the pest or weed control at 1000 g/ha in [1], in [2], in [3], in [4], in experiment [5] and in experiment [6] was 100% throughout. The pest or weed control at 1000 g/ha in [7] is 80%; in experiment [8] it was 100%; in experiment [9], 100%; in experiment [10], 100%.
